For series [1], the system named is 4H2 mAb. Nature of the series: Cross-reactivity of the 4H2 mAb (50% displacement of bound MBG). In kind it is binding, mouse. Particulars: amount of MBG for 50% displacement versus amount of cross-reactant. From the text: (§1) The percent cross-reactivity of the 3E9, 4G4 and 4H2 mAbs was defined as the ratio of the amount of MBG required to displace 50% of maximally bound MBG from the particular anti-MBG mAb, versus the amount of the cross-reactant to give the same 50% displacement. The binding specificities of the 3E9 mAb for a panel of steroids are shown in Table I; those for the 4112 and 4G4 mAbs are shown in Table II.

Series [2] has as its system 3E9 mAb. Nature of the series: Cross-reactivity of the 3E9 mAb (50% displacement of bound MBG). In kind it is binding, mouse. Conditions: amount of MBG for 50% displacement versus amount of cross-reactant.
Source text: as §1

The subject of series [3] is 4G4 mAb. Nature of the series: Cross-reactivity of the 4G4 mAb (50% displacement of bound MBG). In kind it is binding, mouse. Particulars: amount of MBG for 50% displacement versus amount of cross-reactant.
Source text: as §1

Series [4] relates to Sprague-Dawley rats. Put plainly: Experimental uremic cardiomyopathy: partial nephrectomy, MBG infusion, immunization against MBG-BSA. How it is done: (§2) Male, Sprague-Dawley were use in this study. Rats subjected to sham surgery and no MBG infusion or partial nephrectomy were referred to as Sham (n=18). […] MBG-infused rats were referred to as MBG (n=20). Rats immunized against MBG-BSA conjugate before partial nephrectomy were referred to as PNx-IM (n=18).
(§3) MBG was isolated from toad (Bufo Marinus) venom. […] MBG was infused for a period of 4 weeks at 10 μg/kg per day with an osmotic minipump (Alzet Model 2004, Durect Corp).
(§4) Partial nephrectomy (five-sixth nephrectomy) was induced by removal of the right kidney and selective infarction of two-thirds of the left kidney with silk ligatures.
(§5) Rats were immunized with an MBG-BSA conjugate and subjected to partial nephrectomy. The immunization schedule was 3 weekly injections (250 μg/kg per week SQ) in complete Freund's adjuvant before the partial nephrectomy with a last boost at the time of surgery.
(§6) BP was measured once a week by the tail-cuff method in conscious, restrained rats with equipment made by IITC, Inc (Amplifier model 229, Monitor model 31, Test chamber Model 306; IITC Life Science). Before sacrifice at 4 weeks, animals had ventricular pressures determined by placement of a 2F Millar Microtip Catheter Transducer (Millar Instruments Inc) into the left ventricle through a carotid insertion. Hemodynamic data were acquired at 500 Hz and stored electronically using a BioPac MP110 acquisition system and AcqKnowledge 4.7.3 software (BIOPAC Systems, Inc). The values of left ventricular end-diastolic pressure (LVEDP), systolic pressure, developed pressure, maximal velocity of rise or fall in pressure (dP/dt) and the time constant for isovolumic relaxation were determined using standard methods. At the end of 4 weeks, 2D and M-mode echocardiographic studies were performed using a Philips Sonos 5500 cardiovascular ultrasound imaging system (Philips Medical Systems) equipped with a 15 MHz linear transducer. Parasternal long-axis and short-axis views were obtained.
(§7) MBG and ouabain-like compound (OLC) in plasma and urine was determined at 4 weeks after extraction with C-18 columns.
(§8) At the time of sacrifice, left ventricles were quickly dissected out, frozen in liquid nitrogen, and stored at −80° C. until further analysis. Western blot analysis was performed using SDS-PAGE gels (Ready Gel, BioRad).
(§9) Total protein carbonyl concentration of both the plasma and left ventricular homogenate was determined by ELISA using the Zentech PC Test kit (Northwest Life Science Specialties). Total plasma malondialdehyde was measured spectrophotometrically using the Bioxytech MDA-586 kit (Oxis Research).
(§10) To measure sarcoplasmic reticulum calcium ATPase activity, which is predominantly SERCA2a activity in left ventricles of rat cardiac tissue, the method of Simonides and van Hardeveld (Simonides and van Hardeveld, Anal. Biochem. 191:321-331, 1990) was used with minor modifications.
(§11) Hematocrit was measured from whole blood collected in heparinized capillary tubes and spun on a microhematocrit centrifuge (Fisher Scientific). Plasma creatinine was determined spectrophotometrically with a colorimetric end point assay (Teco Diagnostics). Plasma aldosterone levels were measured by ELISA (Cayman). Plasma parathyroid hormone was assayed using the Rat Intact PTH ELISA kit (Immutopics). All of the analyses were performed on blood collected upon sacrifice at 4 weeks.

Assay in series [5]: as above
Conditions: male, Sprague-Dawley, rat, plasma, other: infusion with an osmotic minipump, 10 μg/kg per day. How it is done: as §2, §3, §4, §5, §6, §7, §8, §9, §10, §11

Series [6] concerns polyclonal antidigoxin rabbit antibody. Put plainly: DELFIA immunoassay, displacement of digoxin standards. Conditions: equimolar concentrations of MBG and its conjugate. It counts as binding. From the text: Prior to immunization, the conjugate MBG-glycoside-BSA was compared with MBG for its ability to react with polyclonal antidigoxin rabbit antibody, using a DELFIA immunoassay.

Where [7] appears, read: 4 weeks after MBG infusion or immunization prior to partial nephrectomy.

As for `C[C@]12CC[C@H](O)C[C@H]1CC[C@@H]1[C@@H]2CC[C@]2(C)[C@@H](c3ccc(=O)oc3)CC[C@]12O` [Bufalin], in series [1], the “4H2 Percent cross-immunoreactivity” value is given as 0.07%. This compound showed a Percent cross-immunoreactivity in series [2] of 0.25%. Further, the “4G4 Percent cross-immunoreactivity” value in series [3] is listed as 0.08%.

With `CC(=O)O[C@H]1[C@H]2O[C@]23[C@@H]2CC[C@@H]4C[C@@H](O)CC[C@]4(C)[C@H]2CC[C@]3(C)[C@H]1c1ccc(=O)oc1` [Cinobufagin], in series [1], the “4H2 Percent cross-immunoreactivity” value turned out to be 0.11%. The compound further displayed a Percent cross-immunoreactivity in series [2] of 1.4%. The “4G4 Percent cross-immunoreactivity” value in series [3] is on record as 0.07%.

Regarding `CC(=O)O[C@H]1[C@H]2O[C@]23[C@@H]2CC[C@]4(O)C[C@@H](O)CC[C@]4(C)[C@H]2CC[C@]3(C)[C@H]1c1ccc(=O)oc1` [Cinobufotalin], the “4H2 Percent cross-immunoreactivity” value in series [1] is 58%. In series [2], this compound gave a Percent cross-immunoreactivity of 4%. Besides, the “4G4 Percent cross-immunoreactivity” value in series [3] came to 43%.

Take `C[C@]12C[C@H](O)[C@H]3[C@@H](CCC4=CC(=O)CC[C@@]43C)[C@@H]1CC[C@@H]2C(=O)CO` [Corticosterone]: the Percent cross-immunoreactivity in series [2] is recorded as <0.01%.

`C[C@H]1O[C@@H](O[C@H]2[C@@H](O)C[C@H](O[C@H]3[C@@H](O)C[C@H](O[C@H]4CC[C@@]5(C)[C@H](CC[C@@H]6[C@@H]5CC[C@]5(C)[C@@H](C7=CC(=O)OC7)CC[C@]65O)C4)O[C@@H]3C)O[C@@H]2C)C[C@H](O)[C@@H]1O` [Digitoxin]: in series [2], the Percent cross-immunoreactivity is 0.7%.

As to `C[C@H]1O[C@@H](O[C@H]2[C@@H](O)C[C@H](O[C@H]3[C@@H](O)C[C@H](O[C@H]4CC[C@@]5(C)[C@H](CC[C@@H]6[C@@H]5C[C@@H](O)[C@]5(C)[C@@H](C7=CC(=O)OC7)CC[C@]65O)C4)O[C@@H]3C)O[C@@H]2C)C[C@H](O)[C@@H]1O` [Digoxin], the “4H2 Percent cross-immunoreactivity” value in series [1] is on record as 0.03%. Besides, the Percent cross-immunoreactivity in series [2] was 1.8%. Besides, the “4G4 Percent cross-immunoreactivity” value in series [3] stood at 0.003%.

In the case of `C[C@]12CC[C@H](O)C[C@@]1(O)CC[C@@H]1[C@@H]2CC[C@]2(C)[C@@H](c3ccc(=O)oc3)CC3O[C@@]312` (stereo partly drawn) [MBG, 3β,5β-dihydroxy-14,15-epoxy bufadienolide], the “4H2 Percent cross-immunoreactivity” value in series [1] worked out at 100%. In series [2], this compound yielded a Percent cross-immunoreactivity of 100%. For the same compound, in series [4] (setting [7]), the Hematocrit was determined as 44.6 ± 0.9%, the “Left ventricular carbonylated protein” value came out at 505 ± 22 pmol/mg protein, the “Plasma [OLC]” value was found to be 493 ± 41 pmol/L and the Plasma aldosterone worked out at 322 ± 38 pg/mL. Besides, in series [4] (setting [7]), the Plasma carbonylated protein is 378 ± 15 pmol/mg protein, the Plasma creatinine came out at 0.52 ± 0.07 mg/dL, the Plasma parathyroid hormone turned out to be 41 ± 9 pg/mL and the Plasma total malondialdehyde worked out at 474 ± 41 nm. In series [4] (setting [7]), the “Urinary MBG excretion (UMBGV)” value is 49.1 ± 3.5 pmol/24 h and the “Urinary OLC excretion (UOLCV)” value was found to be 10.6 ± 0.9 pmol/24 h. Also, in series [4] (Millar catheter after 4 weeks), the “left ventricular hemodynamics (dP/dt, LVEDP, time constant for isovolumic relaxation)” value is “only the changes in LVEDP and time constant for isovolumic relaxation achieved statistical significance”. For the same compound, in series [4] (after 4 weeks), the “heart weight / cardiac size” value is on record as “significant increases in heart weight”. Moreover, in series [4] (at 4 weeks, MBG versus sham, immunization versus partial nephrectomy), the “echocardiographic changes (wall thickness, chamber size, FS)” value was “not associated with significant changes”. In addition, in series [4] (tail-cuff, conscious rats, MBG versus control, immunization versus partial nephrectomy), the “systolic BP during the 4 weeks of observation” value was “some increases in BP”. Besides, in series [5], the concentration at 4 weeks is 0.546 ± 0.034 nM. For the same compound, the “4G4 Percent cross-immunoreactivity” value in series [3] is given as 100%. The “displacement of digoxin standards” value in series [6] is recorded as “exactly similar displacement of digoxin standards”.

Consider `C[C@]12CC[C@H](OC(=O)CCCCCCC(=O)N[C@@H](CCCN=C(N)N)C(=O)O)C[C@@]1(O)CC[C@@H]1[C@@H]2CC[C@]2(C)[C@@H](c3ccc(=O)oc3)C[C@H]3O[C@]132` [Marinobufotoxin], for which the “4H2 Percent cross-immunoreactivity” value in series [1] worked out at 55%. The compound further came in with a Percent cross-immunoreactivity in series [2] of 4%. For the same compound, the “4G4 Percent cross-immunoreactivity” value in series [3] is recorded as 44%.

For the compound `C[C@]12C[C@@H](O)[C@H]3[C@@H](CC[C@]4(O)C[C@@H](O)C[C@@H](O)[C@]34CO)[C@@]1(O)CC[C@@H]2C1=CC(=O)OC1` [Ouabagenin], the Percent cross-immunoreactivity in series [2] is listed as <0.01%.

For `C[C@@H]1O[C@@H](O[C@H]2C[C@@H](O)[C@]3(CO)[C@H]4[C@H](O)C[C@]5(C)[C@@H](C6=CC(=O)OC6)CC[C@]5(O)[C@@H]4CC[C@]3(O)C2)[C@H](O)[C@H](O)[C@H]1O` [Ouabain], the “4H2 Percent cross-immunoreactivity” value in series [1] was 0.03%. This compound also gave a Percent cross-immunoreactivity in series [2] of 0.3%. Moreover, the “4G4 Percent cross-immunoreactivity” value in series [3] was 0.004%.

Regarding `C[C@]12C=CC(=O)C=C1CC[C@@H]1[C@@H]2C(=O)C[C@@]2(C)[C@H]1CC[C@]2(O)C(=O)CO` [Prednisone], the Percent cross-immunoreactivity in series [2] is reported as <0.01%.

With `CC(=O)[C@H]1CC[C@H]2[C@@H]3CCC4=CC(=O)CC[C@]4(C)[C@H]3CC[C@]12C` [Progesterone], the Percent cross-immunoreactivity in series [2] is on record as 0.3%.

Take `C[C@@H]1O[C@@H](O[C@@H]2C=C3CC[C@@H]4[C@H](CC[C@]5(C)[C@@H](c6ccc(=O)oc6)CC[C@]45O)[C@@]3(C)CC2)[C@H](O)[C@H](O)[C@H]1O` [Proscillaridin]: the Percent cross-immunoreactivity in series [2] is 3%.

For `C[C@]12CC[C@H](O)C[C@H]1CC[C@@H]1[C@@H]2CC[C@]2(C)[C@@H](c3ccc(=O)oc3)C[C@H]3O[C@]132` [Resibufagenin], the “4H2 Percent cross-immunoreactivity” value in series [1] is listed as 0.2%. In addition, the “4G4 Percent cross-immunoreactivity” value in series [3] is 0.6%.

`CC(=O)S[C@@H]1CC2=CC(=O)CC[C@]2(C)[C@H]2CC[C@@]3(C)[C@@H](CC[C@@]34CCC(=O)O4)[C@H]12` [Spironolactone] showed a Percent cross-immunoreactivity in series [2] of 0.22%.

The compound Telocinobufotoxin registered a Percent cross-immunoreactivity in series [2] of 7%.

Values taken from patent publication US8038997B2, “Anti-marinobufagenin antibodies and methods for their use” (priority 2005, dated 2011).
